Patent US9708267B2, “Activators of human pyruvate kinase” (The United States of America, as represented by the …, priority 2010, dated 2017)
Where two headings read alike, the source gives them in different places.

Biological target: hPK, M2 (Homo sapiens, UniProt P14618)
Assay: luminescent pyruvate kinase-luciferase coupled assay (qHTS)
Assay type: biochemical
Conditions: for activation at 57 µM: % activation at 57 μM of compound, read-out: hPK, M2 Max. Res.; for Emax: read-out: Max. Res.
Experimental: AC50 values were determined utilizing the luminescent pyruvate kinase-luciferase coupled assay (Inglese, J. et al, Quantitative high-throughput screening: a titration-based approach that efficiently identifies biological activities in large chemical libraries. Proc. Natl. Acad. Sci. U.S.A. 2006, 103, 11473-11478).
Luminescent Pyruvate Kinase-Luciferase Coupled Assay.
Production of a luminescent signal based on the generation of ATP by pyruvate kinase was determined by using the ATP-dependent enzyme firefly luciferase. Three μL of substrate mix (at r.t.) in assay buffer (50 mM imidazole pH 7.2, 50 mM KCl, 7 mM MgCl2, 0.01% tween 20, 0.05% BSA) was dispensed into Kalypsys (San Diego, Calif., USA) white solid bottom 1,536 well microtiter plates using a bottle-valve solenoid-based dispenser (Kalypsys). The final concentrations of substrates in the assay were 0.1 mM ADP and 0.5 mM PEP. Twenty-three nL of compound in DMSO were delivered with a 1,536-pin array tool, and 1 μL of enzyme mix in assay buffer (final concentration, 0.1 nM pyruvate kinase, 50 mM imidazole pH 7.2, 0.05% BSA, 4° C.) was added. Microtiter plates were incubated at r.t. for 1 hour and 2 uL of luciferase detection mix (Kinase-Glo from Promega, Madison, Wis., USA) at 4° C. protected from light, was added and luminescence was read with a ViewLux (Perkin Elmer, Waltham, Mass., USA) using a 2 second exposure/plate (with 2× binning). The final concentration of DMSO was 0.5% and found not to affect the assay signal.
Data was normalized for AC50 values to control columns containing uninhibited enzyme (n), and AC100 inhibition (i) according the following equation: Activation (%)=[(c−n)/(n−i)]*100 where c=compound, n=DMSO neutral, i=no enzyme control. A % activity of 100% is approximately a 2-fold increase over basal assay signal (% Activation by FBP was variable but averaged 100%). Monitoring of activation was accomplished using enzyme at 3× the final concentration.
All compounds were screened using a qHTS approach, where compounds are assayed using at least seven concentrations to generate concentration-response curves for every compounds. Briefly, qHTS uses an inter-plate dilution method where the first plate contains the highest concentration of a set of compounds in DMSO, while subsequent plates contain the same compounds in the same well locations, but at successive lower concentrations. Using the protocol outlined above, the rate was calculated as a plate throughput of 18 plates/hr or approximately 7 samples/sec on the Kalypsys robotic system which means that a 7 point CRC was obtained every second on the robotic system.

[1] = Table 3, 0.1 mM ADP, 0.5 mM PEP, mean of three replicate experiments, read-out: hPK, M2 AC50
[2] = Table 3, mean of three replicate experiments
[3] = Table 4, maximum response (activation)
[4] = linkage variants of compound 4, read-out: AC50
[5] = Table 4, 0.1 mM ADP, 0.5 mM PEP, read-out: AC50

hPK, M2, sequence (P14618 whole entry): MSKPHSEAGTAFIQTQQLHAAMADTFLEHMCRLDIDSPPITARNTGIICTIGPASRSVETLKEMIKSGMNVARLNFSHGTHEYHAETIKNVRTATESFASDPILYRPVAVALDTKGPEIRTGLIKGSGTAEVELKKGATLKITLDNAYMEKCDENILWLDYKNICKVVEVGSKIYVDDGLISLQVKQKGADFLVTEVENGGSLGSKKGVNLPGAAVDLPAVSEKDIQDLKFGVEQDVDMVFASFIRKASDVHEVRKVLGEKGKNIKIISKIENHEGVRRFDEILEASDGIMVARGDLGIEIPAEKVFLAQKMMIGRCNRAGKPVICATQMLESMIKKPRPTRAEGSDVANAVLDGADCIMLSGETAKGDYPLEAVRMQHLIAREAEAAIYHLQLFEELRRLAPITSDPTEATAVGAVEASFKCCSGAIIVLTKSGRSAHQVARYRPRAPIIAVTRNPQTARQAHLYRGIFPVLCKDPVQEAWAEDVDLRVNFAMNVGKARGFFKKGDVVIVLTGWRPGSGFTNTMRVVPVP

| SMILES | AC50 [5] | Emax [3] | also measured |
| --- | --- | --- | --- |
| Cc1ccc(NS(=O)(=O)c2cc3c(cc2Cl)CCC(=O)N3)cc1C [Compound 35, 6-chloro-N-(3,4-dimethylphenyl)-2-oxo-1,2,3,4-tetrahydroquinoline-7-sulfonamide] | – | – | AC50 [1]: 260 nM; activation at 57 µM [2]: 104% |
| Cc1ccc(NS(=O)(=O)c2cc3c(cc2N(C)C)CCC(=O)N3)cc1C [Compound 36, 6-(dimethylamino)-N-(3,4-dimethylphenyl)-2-oxo-1,2,3,4-tetrahydroquinoline-7-sulfonamide] | – | – | AC50 [1]: 460 nM; activation at 57 µM [2]: 110% |
| Cc1ccc(NS(=O)(=O)c2cc3c(cc2Cl)NC(=O)CO3)cc1C [Compound 37, 6-chloro-N-(3,4-dimethylphenyl)-3-oxo-3,4-dihydro-2H-benzo[b][1,4]oxazine-7-sulfonamide] | – | – | AC50 [1]: 580 nM; activation at 57 µM [2]: 95% |
| Cc1ccc(NS(=O)(=O)c2cc3c(cc2Br)NC(=O)CO3)cc1C [Compound 38, 6-bromo-N-(3,4-dimethylphenyl)-3-oxo-3,4-dihydro-2H-benzo[b][1,4]oxazine-7-sulfonamide] | – | – | AC50 [1]: 18000 nM; activation at 57 µM [2]: 103% |
| Cc1ccc(NS(=O)(=O)c2cc3c(cc2C)NC(=O)CO3)cc1C [Compound 39, N-(3,4-dimethylphenyl)-6-methyl-3-oxo-3,4-dihydro-2H-benzo[b][1,4]oxazine-7-sulfonamide] | – | – | AC50 [1]: 1200 nM; activation at 57 µM [2]: 106% |
| Cc1ccc(NS(=O)(=O)c2cc3c(cc2-c2ccccc2)NC(=O)CO3)cc1C [Compound 40, N-(3,4-dimethylphenyl)-3-oxo-6-phenyl-3,4-dihydro-2H-benzo[b][1,4]oxazine-7-sulfonamide] | – | – | AC50 [1]: 20600 nM; activation at 57 µM [2]: 36% |
| Cc1ccc(N(C)S(=O)(=O)c2ccc3c(c2)CCC(=O)N3)cc1C [Compound 41, N-(3,4-dimethylphenyl)-N-methyl-2-oxo-1,2,3,4-tetrahydroquinoline-6-sulfonamide] | – | – | Max. Res. [3]: 36.00; AC50 [4]: 23100 nM; Emax (linkage variants of compound 4): 36% |
| Cc1ccc(NC(=O)c2ccc3c(c2)CCC(=O)N3)cc1C [Compound 42, N-(3,4-dimethylphenyl)-2-oxo-1,2,3,4-tetrahydroquinoline-6-carboxamide] | – | – | Max. Res. [3]: 5; AC50 [4]: 40000 nM; Emax (linkage variants of compound 4): 5% |
| Cc1ccc(NS(=O)(=O)c2ccc3c(c2)CCC(=O)N3)cc1Cl [Compound 43, N-(3-chloro-4-methylphenyl)-2-oxo-1,2,3,4-tetrahydroquinoline-6-sulfonamide] | 260 nM | 122% | – |
| O=C1CCc2cc(S(=O)(=O)Nc3ccc(Cl)c(Cl)c3)ccc2N1 [Compound 44, N-(3,4-dichlorophenyl)-2-oxo-1,2,3,4-tetrahydroquinoline-6-sulfonamide] | 2590 nM | 126% | – |
| Cc1ccc(Cl)cc1NS(=O)(=O)c1cc2c(cc1Cl)CCC(=O)N2 [Compound 45, 6-chloro-N-(5-chloro-2-methylphenyl)-2-oxo-1,2,3,4-tetrahydroquinoline-7-sulfonamide] | 2910 nM | 109% | – |
| N#Cc1cccc(NS(=O)(=O)c2ccc3c(c2)CCC(=O)N3)c1 [Compound 46, N-(3-cyanophenyl)-2-oxo-1,2,3,4-tetrahydroquinoline-6-sulfonamide] | 9190 nM | 97% | – |
| CC(=O)N1c2ccc(S(=O)(=O)Nc3ccc(C)c(C)c3)cc2CC1C (centres unmarked) [Compound 47, 1-acetyl-N-(3,4-dimethylphenyl)-2-methylindoline-5-sulfonamide] | 18300 nM | 112% | – |
| Cc1ccc(Cl)cc1NS(=O)(=O)c1cc2c(cc1F)NC(=O)CC2 [Compound 48, N-(5-chloro-2-methylphenyl)-7-fluoro-2-oxo-1,2,3,4-tetrahydroquinoline-6-sulfonamide] | 4610 nM | 94.6% | – |
| Cc1ccc(NS(=O)(=O)c2cc3c(cc2Cl)CCC(=O)N3)cc1Cl [Compound 49, 6-chloro-N-(3-chloro-4-methylphenyl)-2-oxo-1,2,3,4-tetrahydroquinoline-7-sulfonamide] | 650 nM | 112% | – |
| Cc1c(Cl)cccc1NS(=O)(=O)c1cc2c(cc1F)NC(=O)CC2 [Compound 50, N-(3-chloro-2-methylphenyl)-7-fluoro-2-oxo-1,2,3,4-tetrahydroquinoline-6-sulfonamide] | 2590 nM | 118% | – |
| Cc1ccc(NS(=O)(=O)c2cc3c(cc2F)NC(=O)CC3)cc1Cl [Compound 51, N-(3-chloro-4-methylphenyl)-7-fluoro-2-oxo-1,2,3,4-tetrahydroquinoline-6-sulfonamide] | 120 nM | 102% | – |
| O=C1CCc2cc(S(=O)(=O)Nc3cccc(B(O)O)c3)ccc2N1 [Compound 52, 3-(2-oxo-1,2,3,4-tetrahydroquinoline-6-sulfonamido)phenylboronic acid] | 820 nM | 99.3% | – |
| Cc1cc(NS(=O)(=O)c2ccc3c(c2)CCC(=O)N3)ccc1F [Compound 53, N-(4-fluoro-3-methylphenyl)-2-oxo-1,2,3,4-tetrahydroquinoline-6-sulfonamide] | 370 nM | 121% | – |
| O=C1CCc2cc(S(=O)(=O)Nc3ccc(Cl)c(Cl)c3)c(F)cc2N1 [Compound 54, N-(3,4-dichlorophenyl)-7-fluoro-2-oxo-1,2,3,4-tetrahydroquinoline-6-sulfonamide] | 3660 nM | 109% | – |
| Cc1ccc(NS(=O)(=O)c2ccc3c(c2)CCC(=O)N3)cc1F [Compound 55, N-(3-fluoro-4-methylphenyl)-2-oxo-1,2,3,4-tetrahydroquinoline-6-sulfonamide] | 460 nM | 131% | – |
| Cc1cc(NS(=O)(=O)c2cc3c(cc2F)NC(=O)CC3)ccc1Cl [Compound 56, N-(4-chloro-3-methylphenyl)-7-fluoro-2-oxo-1,2,3,4-tetrahydroquinoline-6-sulfonamide] | 820 nM | 94.2% | – |
| Cc1ccc(NS(=O)(=O)c2cc3c(cc2Cl)NC(=O)C3)cc1C [Compound 57, 6-chloro-N-(3,4-dimethylphenyl)-2-oxoindoline-5-sulfonamide] | 920 nM | 108% | – |
| Cc1cc(NS(=O)(=O)c2ccc3c(c2)CCC(=O)N3)ccc1Cl [Compound 58, N-(4-chloro-3-methylphenyl)-2-oxo-1,2,3,4-tetrahydroquinoline-6-sulfonamide] | 410 nM | 96.5% | – |
| Cc1c(Cl)cccc1NS(=O)(=O)c1cc2c(cc1Cl)CCC(=O)N2 [Compound 59, 6-chloro-N-(3-chloro-2-methylphenyl)-2-oxo-1,2,3,4-tetrahydroquinoline-7-sulfonamide] | 1160 nM | 109% | – |
| Cc1ccc(NS(=O)(=O)c2ccc3c(c2)C(Cl)(Cl)C(=O)N3)cc1C [Compound 60, 3,3-dichloro-N-(3,4-dimethylphenyl)-2-oxoindoline-5-sulfonamide] | 10300 nM | 117% | – |
| Cc1ccc(NS(=O)(=O)c2cc3c(cc2N(C)CCN(C)C)NC(=O)CC3)cc1C [Compound 61, 7-((2-(dimethylamino)ethyl)(methyl)amino)-N-(3,4-dimethylphenyl)-2-oxo-1,2,3,4-tetrahydroquinoline-6-sulfonamide] | 5840 nM | 70.5% | – |
| Cc1ccc(NS(=O)(=O)c2cc3c(cc2N2CCCC2)NC(=O)CC3)cc1C [Compound 62, N-(3,4-dimethylphenyl)-2-oxo-7-(pyrrolidin-1-yl)-1,2,3,4-tetrahydroquinoline-6-sulfonamide] | 460 nM | 124% | – |
| Cc1ccc(NS(=O)(=O)c2cc3c(cc2N2CCC(N(C)C)C2)NC(=O)CC3)cc1C (centres unmarked) [Compound 63, 7-(3-(dimethylamino)pyrrolidin-1-yl)-N-(3,4-dimethylphenyl)-2-oxo-1,2,3,4-tetrahydroquinoline-6-sulfonamide] | 8190 nM | 102% | – |
| Cc1ccc(NS(=O)(=O)c2cc3c(cc2NCC(C)(C)O)NC(=O)CC3)cc1C [Compound 64, N-(3,4-dimethylphenyl)-7-(2-hydroxy-2-methylpropylamino)-2-oxo-1,2,3,4-tetrahydroquinoline-6-sulfonamide] | 1830 nM | 100% | – |
